Measurements from paper PMC12470154, “In Vitro Evaluation of Antimicrobial Amyloidogenic Peptides for the Treatment of Early and Mature Bacterial Biofilms” (International Journal of Molecular Sciences, 2025).

Experiments:
MRSA (SA 180-F strain) [1] = assay: Mature biofilms, MTT assay; type: cell-based, methicillin-resistant Staphylococcus aureus; design: key: ↓: Decrease in the parameter (optical density) compared to the negative control; −: No decrease in the parameter; ↑: Reverse effect (increase in the optical density compared to the control); conditions: mature biofilm: peptide added after 24 h, further 24 h; 0.01-10 mg/mL
Method: (§1) After 24 h of incubation, the medium was removed. To assess the total biofilm biomass, the wells were rinsed with sterile PBS solution and stained with 0.1% crystal violet. The dye bound to the surface was then removed using 95% ethanol. To assess the presence of metabolically active cells, 0.3% MTT (PanEco Ltd., Moscow, Russia) solution was added to each well, and the plates were incubated at 37 °C for 2 h. After incubation, the MTT solution was removed, 150 µL of DMSO (Chimmed, Moscow, Russia) and 25 µL of glycine buffer were added to each well, and the plates were left at room temperature for 15 min. The resulting solutions were transferred to a flat-bottom 96-well plate, and optical density was measured at 595 nm.
(§2) A stationary-phase culture of the tested strain was diluted 100-fold in fresh medium (200 µL per well) and added to the wells of a 96-well round-bottom plate. […] After another 24 h, the medium was removed and the wells were rinsed with sterile PBS to eliminate planktonic cells. The procedures for assessing total biofilm biomass and cell metabolic activity using crystal violet and MTT assays were performed in the same manner as described above for early-stage biofilm experiments.

[2] = system: P. aeruginosa (2943 strain); assay: Early biofilm formation, MTT assay; type: cell-based, Pseudomonas aeruginosa; design: key: ↓: Decrease in the parameter (optical density) compared to the negative control; −: No decrease in the optical density; ↑: Reverse effect (increase in the optical density compared to the control); conditions: 24 h, 0.3% MTT 2 h 37 °C, OD 595 nm
Method: as §1

E. coli (MG1655 strain) [3] = assay: Antibacterial activity in liquid medium (optical density); type: cell-based, Escherichia coli; design: key to change of optical density vs negative control: ↓: Decrease in the parameter (optical density) compared to the negative control; −: No decrease in the parameter; ↑: Reverse effect (increase in the optical density compared to the control); conditions: 24 h, 37 °C; for change of optical density vs negative control: OD 595 nm
Method: (§3) To evaluate the antibacterial activity of peptides in liquid culture, a stationary-phase culture of the tested bacterial strain was diluted 100-fold in fresh medium containing peptides or gentamicin (positive control) at the specified concentrations. A total volume of 200 µL was added to each well of a 96-well round-bottom microtiter plate. After 24 h of incubation at 37 °C, the samples were transferred to a flat-bottom 96-well microtiter plate, and the optical density was measured at 595 nm. Separately, the optical density of medium containing peptides but no bacteria was measured. These values were used as baseline (zero) readings for subsequent data analysis.

S. aureus (129B strain) [4] = assay: Early biofilm formation, MTT assay; type: cell-based, Staphylococcus aureus; design: key: ↓: Decrease in the parameter (optical density) compared to the negative control; −: No decrease in the parameter; ↑: Reverse effect (increase in the optical density compared to the control); conditions: 24 h, 0.3% MTT 2 h 37 °C, OD 595 nm
Method: as §1

MRSA (SA 180-F strain) [5] = assay: Antibacterial activity in liquid medium (optical density); type: cell-based, methicillin-resistant Staphylococcus aureus; design: key to change of optical density vs negative control: ↓: Decrease in the parameter (optical density) compared to the negative control; −: No decrease in the parameter; ↑: Reverse effect (increase in the optical density compared to the control); conditions: 24 h, 37 °C; for change of optical density vs negative control: OD 595 nm
Method: as §3

MRSA (SA 180-F strain) [6] = assay: Mature biofilms, crystal violet staining; type: cell-based, methicillin-resistant Staphylococcus aureus; design: key: ↓: Decrease in the parameter (optical density) compared to the negative control; −: No decrease in the parameter; ↑: Reverse effect (increase in the optical density compared to the control); conditions: mature biofilm: peptide added after 24 h, further 24 h, 0.01-10 mg/mL
Method: as §1, §2

E. coli (MG1655 strain) [7] = assay: Early biofilm formation, crystal violet staining; type: cell-based, Escherichia coli; design: key: ↓: Decrease in the parameter (optical density) compared to the negative control; −: No decrease in the parameter; ↑: Reverse effect (increase in the optical density compared to the control); conditions: peptide present from inoculation, 24 h, OD 595 nm
Method: as §1

[8] = system: P. aeruginosa (2943 strain); assay: Early biofilm formation, MTT assay; type: cell-based, Pseudomonas aeruginosa; design: key: ↓: Decrease in the parameter (optical density) compared to the negative control; −: No decrease in the parameter; ↑: Reverse effect (increase in the optical density compared to the control); conditions: 24 h, 0.3% MTT 2 h 37 °C, OD 595 nm
Method: as §1

S. aureus (129B strain) [9] = assay: Antibacterial activity on 0.7% agar (inhibition zone); type: cell-based, Staphylococcus aureus; design: key: +: The presence of a bacterial growth inhibition zone; −: The absence of a bacterial growth inhibition zone; conditions: drop on 0.7% agar, 24 h
Method: (§4) Drops of the samples were applied to the surface of solidified 0.7% agar at the concentrations indicated in Table 2 and Supplementary S2 (Figures S1–S4). After 24 h of incubation, the results were evaluated based on the presence or absence (+/−) of inhibition zones.
(§5) Once the agar solidified, drops of peptide samples at the concentrations 1, 0.1, 0.01, and 0.001 mg/mL were applied to the agar surface.

MRSA (SA 180-F strain) [10] = assay: Mature biofilms, crystal violet staining; type: cell-based, methicillin-resistant Staphylococcus aureus; design: key: ↓: Decrease in the parameter (optical density) compared to the negative control; −: No decrease in the optical density; ↑: Reverse effect (increase in the optical density compared to the control); conditions: mature biofilm: peptide added after 24 h, further 24 h; 0.01-10 mg/mL
Method: as §1, §2

E. coli (MG1655 strain) [11] = assay: Antibacterial activity on 0.7% agar (inhibition zone); type: cell-based, Escherichia coli; design: key: +: The presence of a bacterial growth inhibition zone; −: The absence of a bacterial growth inhibition zone; conditions: drop on 0.7% agar, 24 h
Method: as §4, §5

| Sequence | change of optical density after MTT assay vs negative control (MRSA (SA 180-F strain) [1]) | change of optical density after MTT assay vs negative control [2] | change of optical density vs negative control (E. coli (MG1655 strain) [3]) | change of optical density after MTT assay vs negative control (S. aureus (129B strain) [4]) | concentration given with ↓ (decrease in optical density) (MRSA (SA 180-F strain) [5]) [mg/mL] | change of optical density vs negative control (MRSA (SA 180-F strain) [5]) | change of optical density after crystal violet staining vs negative control (MRSA (SA 180-F strain) [6]) | change of optical density after crystal violet staining vs negative control (E. coli (MG1655 strain) [7]) | bacterial growth inhibition zone (S. aureus (129B strain) [9]; 0.001 mg/mL) | bacterial growth inhibition zone (S. aureus (129B strain) [9]; 0.01 mg/mL) | bacterial growth inhibition zone (S. aureus (129B strain) [9]; 0.1 mg/mL) | bacterial growth inhibition zone (S. aureus (129B strain) [9]; 1 mg/mL) | change of optical density after crystal violet staining vs negative control (MRSA (SA 180-F strain) [10]) | concentration given with ↓ (decrease in optical density) (E. coli (MG1655 strain) [3]) [mg/mL] | bacterial growth inhibition zone (E. coli (MG1655 strain) [11]; 0.001 mg/mL) | bacterial growth inhibition zone (E. coli (MG1655 strain) [11]; 0.01 mg/mL) | bacterial growth inhibition zone (E. coli (MG1655 strain) [11]; 0.1 mg/mL) | bacterial growth inhibition zone (E. coli (MG1655 strain) [11]; 1 mg/mL) | further results |
| --- | --- | --- | --- | --- | --- | --- | --- | --- | --- | --- | --- | --- | --- | --- | --- | --- | --- | --- | --- |
| ITDFGIFIGLGGGGSRQIKIWFQNRRMKWKK [I31K^P] | ↓ (0.01 mg/mL) | − | − | ↑ | 1 | ↓ (1 mg/mL) | ↑ | ↑ |  |  |  |  |  |  |  |  |  |  |  |
| RKKRRQRRRGGGGITDFGIFIGL [R23L^P] | ↓ (0.01 mg/mL) |  | ↓ (0.1 mg/mL) | ↑ | 0.1 | ↓ (0.1 mg/mL) |  | ↑ | − | − | − | + | − | 0.1 | − | − | − | + | change of optical density after MTT assay vs negative control [8]: ↑ |
| RKKRRQRRRGGGGVTDFGVFVEI [R23I^T, TAT cell-penetrating peptide linked via glycine linker to amyloidogenic fragment of S1 ribosomal protein of T. thermophilus] |  | − | ↑ | ↑ | 1 | ↓ (1 mg/mL) |  | ↑ | − | − | − | + | − |  | − | − | − | − |  |
| RKKRRQRRRGGGGVVVHINGGKFGGGGSRQIKIWFQNRRMKWKK [R44K^S] | ↓ (0.01 mg/mL) | − | ↓ (0.1 mg/mL) | ↑ | 0.1 | ↓ (0.1 mg/mL) | ↑ | ↑ | − | − | − | + |  | 0.1 | − | − | − | − | change of optical density after MTT assay vs negative control ([8]; listed as R44K^P): ↓ (10 mg/mL) |
| VTDFGVFVEIGGGGSRQIKIWFQNRRMKWKK [V31K^T, amyloidogenic fragment of S1 of T. thermophilus linked via glycine-rich linker to antennapedia peptide] | ↓ (0.01 mg/mL) | − | − | ↑ | 1 | ↓ (1 mg/mL) |  | ↑ | − | − | − | − | − | 0.1 | − | − | − | − | change of optical density after MTT assay vs negative control ([8]; listed as V31K^S): ↓ (10 mg/mL); change of optical density vs negative control (E. coli (MG1655 strain) [3]; listed as V31K^S): ↓ (0.1 mg/mL); change of optical density vs negative control (MRSA (SA 180-F strain) [5]; listed as V31K^S): ↓ (0.1 mg/mL); concentration given with ↓ (decrease in optical density) (MRSA (SA 180-F strain) [5]; listed as V31K^S): 0.1 mg/mL; change of optical density after crystal violet staining vs negative control (MRSA (SA 180-F strain) [6]; listed as V31K^S): ↑; bacterial growth inhibition zone (E. coli (MG1655 strain) [11]; 1 mg/mL, listed as V31K^S): + |
